Experimental data from ChEMBL document CHEMBL4270597, “Donepezil-butylated hydroxytoluene (BHT) hybrids as Anti-Alzheimer's disease agents with cholinergic, antioxidant, and neuroprotective properties” (Eur J Med Chem, 2018).
Calls of active or inactive are those of the source. The calls are words filed in the database; no cut-off is given here.

Experiments:
[1] = target: Acetylcholinesterase (Electrophorus electricus, UniProt O42275); test: Inhibition of electric eel AChE using acetylthiocholine chloride as substrate incubated for 5 mins followed by substrate addition measured after 180 secs by Ellman's method
Chain of Acetylcholinesterase (Electrophorus electricus, UniProt O42275) (O42275 whole entry): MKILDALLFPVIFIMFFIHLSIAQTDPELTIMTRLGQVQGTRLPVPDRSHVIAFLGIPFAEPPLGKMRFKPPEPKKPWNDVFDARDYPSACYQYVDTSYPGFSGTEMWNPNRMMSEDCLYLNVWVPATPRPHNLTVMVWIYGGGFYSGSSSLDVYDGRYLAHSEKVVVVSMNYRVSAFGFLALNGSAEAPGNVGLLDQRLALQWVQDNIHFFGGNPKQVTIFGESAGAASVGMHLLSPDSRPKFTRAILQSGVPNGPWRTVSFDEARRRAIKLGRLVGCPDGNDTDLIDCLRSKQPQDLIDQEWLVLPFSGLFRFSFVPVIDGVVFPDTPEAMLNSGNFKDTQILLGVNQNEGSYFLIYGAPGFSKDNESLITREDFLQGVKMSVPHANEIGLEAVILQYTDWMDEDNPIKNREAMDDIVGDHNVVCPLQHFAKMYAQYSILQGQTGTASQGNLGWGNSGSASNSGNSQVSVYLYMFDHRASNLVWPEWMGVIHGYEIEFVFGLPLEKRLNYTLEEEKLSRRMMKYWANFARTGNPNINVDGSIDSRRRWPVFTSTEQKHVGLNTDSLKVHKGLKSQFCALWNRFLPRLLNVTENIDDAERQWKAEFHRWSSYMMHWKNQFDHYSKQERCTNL

[2] = target: Cholinesterase (Equus caballus) (UniProt P81908); test: Inhibition of equine serum BuChE at 100 uM using butyrylthiocholine iodide as substrate incubated for 5 mins followed by substrate addition measured after 180 secs by Ellman's method relative to control
Chain of Cholinesterase (Equus caballus) (P81908 whole entry): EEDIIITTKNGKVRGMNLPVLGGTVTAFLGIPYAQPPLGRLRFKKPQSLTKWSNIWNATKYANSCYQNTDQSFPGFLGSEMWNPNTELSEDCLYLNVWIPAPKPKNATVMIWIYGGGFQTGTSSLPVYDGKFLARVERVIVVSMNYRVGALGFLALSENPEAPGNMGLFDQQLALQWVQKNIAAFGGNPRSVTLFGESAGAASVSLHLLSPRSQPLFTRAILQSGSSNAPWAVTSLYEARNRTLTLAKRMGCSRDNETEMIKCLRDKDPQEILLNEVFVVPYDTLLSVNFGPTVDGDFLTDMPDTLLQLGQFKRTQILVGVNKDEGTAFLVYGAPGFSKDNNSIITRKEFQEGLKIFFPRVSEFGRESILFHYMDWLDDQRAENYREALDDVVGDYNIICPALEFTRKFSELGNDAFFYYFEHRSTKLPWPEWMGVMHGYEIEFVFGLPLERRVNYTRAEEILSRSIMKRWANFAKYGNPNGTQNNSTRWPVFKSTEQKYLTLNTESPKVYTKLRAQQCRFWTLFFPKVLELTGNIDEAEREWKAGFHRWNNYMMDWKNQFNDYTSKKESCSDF

[3] = target: T1, Acetylcholinesterase (Homo sapiens, UniProt P22303); test: Inhibition of human erythrocyte AChE using acetylthiocholine chloride as substrate incubated for 5 mins followed by substrate addition measured after 180 secs by Ellman's method
T1 sequence (P22303 whole entry): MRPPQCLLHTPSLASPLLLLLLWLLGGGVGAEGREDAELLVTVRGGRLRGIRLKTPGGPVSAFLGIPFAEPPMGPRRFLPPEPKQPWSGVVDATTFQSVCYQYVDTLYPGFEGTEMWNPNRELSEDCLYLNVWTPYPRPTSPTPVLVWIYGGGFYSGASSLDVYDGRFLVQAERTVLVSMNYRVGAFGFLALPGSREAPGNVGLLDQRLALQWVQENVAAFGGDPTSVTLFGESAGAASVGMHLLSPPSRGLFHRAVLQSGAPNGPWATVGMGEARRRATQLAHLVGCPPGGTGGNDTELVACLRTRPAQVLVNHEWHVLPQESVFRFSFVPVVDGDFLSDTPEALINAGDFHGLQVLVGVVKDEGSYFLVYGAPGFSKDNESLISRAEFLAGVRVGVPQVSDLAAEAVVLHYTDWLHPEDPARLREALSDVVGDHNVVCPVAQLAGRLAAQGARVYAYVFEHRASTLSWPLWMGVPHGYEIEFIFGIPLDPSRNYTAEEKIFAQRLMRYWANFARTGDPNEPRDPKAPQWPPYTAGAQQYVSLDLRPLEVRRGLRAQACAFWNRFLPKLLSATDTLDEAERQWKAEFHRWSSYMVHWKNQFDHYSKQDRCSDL

[4] = target: T2, Cholinesterase (Homo sapiens, UniProt P06276); test: Inhibition of human serum BuChE using butyrylthiocholine iodide as substrate incubated for 5 mins followed by substrate addition measured after 180 secs by Ellman's method
T2 sequence (P06276 whole entry): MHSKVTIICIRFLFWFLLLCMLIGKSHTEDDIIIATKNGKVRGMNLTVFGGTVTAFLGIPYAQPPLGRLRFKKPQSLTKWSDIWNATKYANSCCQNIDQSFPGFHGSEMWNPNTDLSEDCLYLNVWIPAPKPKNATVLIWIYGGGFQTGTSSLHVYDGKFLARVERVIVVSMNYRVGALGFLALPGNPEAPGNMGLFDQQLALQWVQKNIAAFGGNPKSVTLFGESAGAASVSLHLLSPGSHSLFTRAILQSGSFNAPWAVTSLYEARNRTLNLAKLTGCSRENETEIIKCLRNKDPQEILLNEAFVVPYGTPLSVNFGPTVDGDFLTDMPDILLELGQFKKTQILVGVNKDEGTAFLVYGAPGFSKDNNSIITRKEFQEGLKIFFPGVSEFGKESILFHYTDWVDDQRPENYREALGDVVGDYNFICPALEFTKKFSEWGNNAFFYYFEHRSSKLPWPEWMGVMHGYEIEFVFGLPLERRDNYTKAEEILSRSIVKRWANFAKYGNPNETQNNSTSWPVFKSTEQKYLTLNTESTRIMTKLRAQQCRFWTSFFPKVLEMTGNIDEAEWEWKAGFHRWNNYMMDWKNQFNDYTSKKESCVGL

[5] = target: T3, Amine oxidase [flavin-containing] A (Homo sapiens, UniProt P21397); test: Inhibition of human MAO-A using p-tyramine as substrate incubated for 15 mins followed by substrate addition measured for 20 mins by fluorescence assay
T3 sequence (P21397 whole entry): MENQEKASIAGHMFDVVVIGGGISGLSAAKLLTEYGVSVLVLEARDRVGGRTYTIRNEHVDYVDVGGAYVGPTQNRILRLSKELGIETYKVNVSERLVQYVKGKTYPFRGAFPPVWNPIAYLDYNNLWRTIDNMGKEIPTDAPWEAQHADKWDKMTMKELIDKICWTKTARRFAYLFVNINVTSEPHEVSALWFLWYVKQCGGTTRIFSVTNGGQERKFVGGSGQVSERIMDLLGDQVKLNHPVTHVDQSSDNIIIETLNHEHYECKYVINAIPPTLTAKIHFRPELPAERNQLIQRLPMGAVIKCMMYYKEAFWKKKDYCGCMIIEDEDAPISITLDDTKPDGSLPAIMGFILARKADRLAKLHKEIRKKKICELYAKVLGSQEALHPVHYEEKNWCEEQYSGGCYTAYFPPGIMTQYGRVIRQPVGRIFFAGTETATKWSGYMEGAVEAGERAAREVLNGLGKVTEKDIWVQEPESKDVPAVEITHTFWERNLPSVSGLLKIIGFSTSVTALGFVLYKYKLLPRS

[6] = target: T4, Amine oxidase [flavin-containing] B (Homo sapiens, UniProt P27338); test: Inhibition of human MAO-B using p-tyramine as substrate incubated for 15 mins followed by substrate addition measured for 20 mins by fluorescence assay
T4 sequence (P27338 whole entry): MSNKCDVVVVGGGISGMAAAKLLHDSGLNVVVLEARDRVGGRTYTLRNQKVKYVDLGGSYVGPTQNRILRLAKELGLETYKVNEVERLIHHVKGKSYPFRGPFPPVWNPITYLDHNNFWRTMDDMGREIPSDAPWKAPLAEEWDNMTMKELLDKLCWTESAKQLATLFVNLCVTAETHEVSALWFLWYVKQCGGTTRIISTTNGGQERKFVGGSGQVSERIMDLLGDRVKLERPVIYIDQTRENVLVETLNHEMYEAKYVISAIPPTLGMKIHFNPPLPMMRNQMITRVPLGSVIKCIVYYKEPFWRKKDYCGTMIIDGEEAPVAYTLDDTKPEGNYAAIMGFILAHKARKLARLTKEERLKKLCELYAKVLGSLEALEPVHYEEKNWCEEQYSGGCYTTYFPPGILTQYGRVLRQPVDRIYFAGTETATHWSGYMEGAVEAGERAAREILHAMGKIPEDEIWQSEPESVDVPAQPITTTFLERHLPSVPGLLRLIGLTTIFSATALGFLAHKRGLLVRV

[7] = Antioxidant activity assessed as DPPH radical scavenging activity measured after 30 mins incubation in dark by UV-Visible spectrophotometric analysis; type: functional
[8] = Antioxidant activity assessed as ABTS radical cation scavenging activity by measuring trolox equivalent antioxidant capacity measured at 6 mins; type: functional
[9] = Antioxidant activity assessed as trolox equivalent of AAPH-induced radical scavenging activity preincubated for 15 mins followed by AAPH addition measured every minute for 120 mins by ORAC-FL based fluorescein assay; type: functional
[10] = target: T2, Cholinesterase; test: Inhibition of human serum BuChE at 100 uM using butyrylthiocholine iodide as substrate incubated for 5 mins followed by substrate addition measured after 180 secs by Ellman's method relative to control
[11] = species on record: Homo sapiens; test: Selectivity index, ratio of IC50 for human serum BuChE to IC50 for human erythrocyte AChE
[12] = test system: BV-2; test: Antineuroinflammatory activity in mouse BV2 cells assessed as inhibition of LPS-induced NO production at 10 to 30 uM after 24 hrs by Griess assay; type: functional, cell-based
[13] = target: Acetylcholinesterase (Electrophorus electricus) (UniProt O42275); test: Inhibition of electric eel AChE at 100 uM using acetylthiocholine chloride as substrate incubated for 5 mins followed by substrate addition measured after 180 secs by Ellman's method relative to control
Chain of Acetylcholinesterase (Electrophorus electricus) (O42275 24-633 limits assumed): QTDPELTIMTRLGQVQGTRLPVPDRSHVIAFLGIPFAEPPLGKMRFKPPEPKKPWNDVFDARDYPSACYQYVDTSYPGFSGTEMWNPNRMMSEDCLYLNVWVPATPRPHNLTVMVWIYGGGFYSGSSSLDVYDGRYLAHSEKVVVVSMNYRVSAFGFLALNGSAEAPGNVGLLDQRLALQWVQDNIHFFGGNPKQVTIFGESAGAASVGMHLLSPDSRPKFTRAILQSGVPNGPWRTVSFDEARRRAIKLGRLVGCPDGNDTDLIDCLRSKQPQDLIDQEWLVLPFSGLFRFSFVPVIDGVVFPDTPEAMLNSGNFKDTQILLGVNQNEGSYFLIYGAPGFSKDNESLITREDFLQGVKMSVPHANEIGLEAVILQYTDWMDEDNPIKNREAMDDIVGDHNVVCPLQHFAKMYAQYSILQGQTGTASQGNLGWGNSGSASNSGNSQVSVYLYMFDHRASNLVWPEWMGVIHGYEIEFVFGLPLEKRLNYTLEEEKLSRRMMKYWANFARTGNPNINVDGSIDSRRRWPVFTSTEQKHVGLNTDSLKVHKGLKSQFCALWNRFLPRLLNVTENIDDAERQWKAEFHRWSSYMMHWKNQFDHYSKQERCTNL

[14] = target: T1, Acetylcholinesterase; test: Inhibition of human erythrocyte AChE at 100 uM using acetylthiocholine chloride as substrate incubated for 5 mins followed by substrate addition measured after 180 secs by Ellman's method relative to control
[15] = Antioxidant activity assessed as DPPH radical scavenging activity at 100 uM measured after 30 mins incubation in dark by UV-Visible spectrophotometric analysis relative to control; type: functional

Row | SMILES | IC50 [1] | inhibition [2] | IC50 [3] | IC50 [4] | IC50 [5] | IC50 [6] | IC50 [7] | Activity (mmolequiv/mmol) [8] | Activity (mmolequiv/mmol) [9] | inhibition [10] | Ratio IC50 [11] | inhibition [12] | inhibition [13] | inhibition [14] | Activity [15]
1 | Cc1ccc(CN2CCC(CCNC(=O)/C=C/c3cc(C(C)(C)C)c(O)c(C(C)(C)C)c3)CC2)cc1 | 0.72 µM | 41.4% | 2.01 µM | Not Active | 70.1 µM | 8.9 µM | 60.4 µM | 0.89 | 1.57 |  |  |  |  |  | 
2 | CC(C)(C)c1cc(/C=C/C(=O)NCCC2CCN(Cc3ccc(F)cc3F)CC2)cc(C(C)(C)C)c1O | 0.56 µM | 31.2% | 1.78 µM | Not Active | 70.6 µM | 12.5 µM | 62.4 µM | 0.91 | 1.54 |  |  |  |  |  | 
3 | COc1ccc(CN2CCC(CCNC(=O)/C=C/c3cc(C(C)(C)C)c(O)c(C(C)(C)C)c3)CC2)cc1 | 0.85 µM | 43.6% | 2.12 µM | Not Active | 72.5 µM | 6.7 µM | 61.2 µM | 0.82 | 1.66 |  |  |  |  |  | 
4 | CC(C)(C)c1cc(/C=C/C(=O)NCCC2CCN(Cc3ccc(Br)cc3)CC2)cc(C(C)(C)C)c1O | 1.32 µM | 38.9% | 3.81 µM | Not Active | 73.2 µM | 13.2 µM | 85.6 µM | 0.77 | 1.59 |  |  |  |  |  | 
5 | Cc1ccccc1CN1CCC(CCNC(=O)/C=C/c2cc(C(C)(C)C)c(O)c(C(C)(C)C)c2)CC1 | 0.87 µM | 55.9% | 2.51 µM |  | 69.3 µM | 7.2 µM | 65.3 µM | 0.75 | 1.61 | 30.2% | > 40 |  |  |  | 
6 | Cc1cc(C(C)(C)C)c(O)c(C(C)(C)C)c1 [BUTYLATED HYDROXYTOLUENE] |  |  |  |  |  |  | 88.6 µM | 0.59 | 1.57 |  |  | Active |  |  | 
7 | CC(C)(C)c1cc(C(=O)CNC2CCN(Cc3ccccc3)CC2)cc(C(C)(C)C)c1O |  | 27.2% |  |  | 104 µM | 83.4 µM |  | 0.36 | 0.35 | 26.1% |  |  | 45% | 43.4% | 16.3%
8 | CC(C)(C)c1cc(/C=C/C(=O)NCC2CCN(Cc3ccccc3)CC2)cc(C(C)(C)C)c1O |  | 16.6% |  |  | 48.4 µM | 11.7 µM | 75.6 µM | 0.86 | 1.31 | 21.7% |  |  | 29.1% | 28.1% | 
9 | CC(C)(C)c1cc(/C=C/C(=O)NCCC2CCN(Cc3cccc(Cl)c3)CC2)cc(C(C)(C)C)c1O | 0.74 µM | 41.5% | 2.54 µM | Not Active | 65.1 µM | 8.7 µM | 83.1 µM | 0.74 | 1.55 |  |  |  |  |  | 
10 | CC(C)(C)c1cc(/C=C/C(=O)NC2CCN(Cc3ccccc3)CC2)cc(C(C)(C)C)c1O |  | 31.5% |  |  | 42.5 µM | 33.5 µM | 71.9 µM | 0.94 | 1.42 | 9.41% |  |  | 34.3% | 27.7% | 
11 | CC(C)(C)c1cc(C(=O)NCCC2CCN(Cc3ccccc3)CC2)cc(C(C)(C)C)c1O |  | 49.7% |  |  | 109 µM | 89.2 µM |  | 0.84 | 1.6 | 15.8% |  |  | 41.8% | 34.1% | 49.1%
12 | CC(C)(C)c1cc(CCC(=O)NC2CCN(Cc3ccccc3)CC2)cc(C(C)(C)C)c1O |  | 28.7% |  |  | 90.2 µM | 70.4 µM | 80.3 µM | 0.68 | 1.62 | 12.3% |  |  | 34.4% | 30.2% | 
13 | Oc1ccc(/C=C/c2cc(O)cc(O)c2)cc1 [RESVERATROL] |  |  |  |  |  |  | 75.1 µM | 0.68 | 1.84 |  |  | Active |  |  | 
14 | CC(C)(C)c1cc(/C=C/C(=O)NCCC2CCN(Cc3cccc(F)c3)CC2)cc(C(C)(C)C)c1O | 0.68 µM | 37.9% | 1.33 µM | Not Active | 58.4 µM | 6.5 µM | 55.2 µM | 0.78 | 1.59 |  |  |  |  |  | 
15 | CC(C)(C)c1cc(/C=C/C(=O)NCCC2CCN(Cc3ccccc3Cl)CC2)cc(C(C)(C)C)c1O | 0.59 µM | 35.5% | 2.44 µM | Not Active | 72.1 µM | 9.8 µM | 80.2 µM | 0.64 | 1.6 |  |  |  |  |  | 
16 | CC(C)(C)c1cc(/C=C/C(=O)NCCC2CCN(Cc3ccc(F)cc3)CC2)cc(C(C)(C)C)c1O | 0.32 µM | 40.2% | 0.98 µM | Not Active | 59.6 µM | 11.1 µM | 57.5 µM | 0.88 | 1.51 |  |  |  |  |  | 
17 | CC(C)(C)c1cc(/C=C/C(=O)NCCC2CCN(Cc3cccc([N+](=O)[O-])c3)CC2)cc(C(C)(C)C)c1O | 1.21 µM | 42.6% | 3.46 µM | Not Active | 70.9 µM | 12.5 µM | 78.1 µM | 0.85 | 1.6 |  |  |  |  |  | 
18 | CC(C)(C)c1cc(CCC(=O)NCCC2CCN(Cc3ccccc3)CC2)cc(C(C)(C)C)c1O | 2.31 µM | 42.4% | 3.42 µM |  | 94.1 µM | 46.9 µM | 54.5 µM | 0.69 | 1.33 | 36.5% | > 33 |  |  |  | 
19 | CC(C)(C)c1cc(/C=C/C(=O)NCCC2CCN(Cc3ccc(C#N)cc3)CC2)cc(C(C)(C)C)c1O | 0.77 µM | 48.1% | 2.78 µM |  | 78.2 µM | 13.9 µM | 79.5 µM | 0.84 | 1.62 | 41.2% | > 36 |  |  |  | 
20 | CC(C)(C)c1cc(/C=C/C(=O)NCCC2CCN(Cc3ccc(F)c(F)c3)CC2)cc(C(C)(C)C)c1O | 0.42 µM | 39.9% | 1.62 µM | Not Active | 64.5 µM | 9.3 µM | 65.7 µM | 0.79 | 1.57 |  |  |  |  |  | 
